This test concerns the target coffee bean alpha-galactosidase (Coffea arabica) (UniProt Q42656). Put plainly: Inhibitory activity measured against alpha-galactosidase of coffee bean by colorimetric assay using the p-nitrophenyl glycoside method.

Our source for the IC50 values is BindingDB's records for doi:10.1021/jm970836l (Hokuriku University, 1998).

Usually IC50 stands for the concentration that gives 50% inhibition. Low values mean greater potency in that assay, high ones weaker potency in that assay.

Sequence of coffee bean alpha-galactosidase (Coffea arabica) (Q42656 whole entry, looked up): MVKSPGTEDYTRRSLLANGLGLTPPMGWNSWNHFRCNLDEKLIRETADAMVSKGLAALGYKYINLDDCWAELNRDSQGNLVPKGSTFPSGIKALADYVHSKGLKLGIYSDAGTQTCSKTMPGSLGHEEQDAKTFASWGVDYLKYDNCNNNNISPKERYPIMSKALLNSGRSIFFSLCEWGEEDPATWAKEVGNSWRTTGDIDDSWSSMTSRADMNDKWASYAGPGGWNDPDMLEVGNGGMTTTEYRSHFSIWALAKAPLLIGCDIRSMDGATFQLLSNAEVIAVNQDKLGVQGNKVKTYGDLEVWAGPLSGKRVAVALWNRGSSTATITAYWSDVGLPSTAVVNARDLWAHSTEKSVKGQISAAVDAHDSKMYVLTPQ

The molecule `OC[C@H]1N[C@H](CO)[C@H](O)C(O)[C@H]1O` (some centres not stated) yielded an IC50 of 80 µM.

Take `OCC1NC(CO)[C@@H](O)C(O)C1O` (stereo partly drawn) [(R)-2,6-Bis-hydroxymethyl-piperidine-3,4,5-triol]: 6.4 µM corresponded to half-maximal inhibition (IC50).
